Measurements from publication PMC11042242, “1,5-Disubstituted tetrazoles as PD-1/PD-L1 antagonists” (RSC Medicinal Chemistry, 2024).
pIC50: −log10 of the molar value.

How the values were obtained:
PD-1/PD-L1 complex = PD-1/PD-L1 complex (Homo sapiens, UniProt Q9NZQ7); details: for IC50: read-out: IC50 (nM), SAR toward PD-L1 based on the HTRF methodology; for IC50 / IC50 (nM), SAR toward PD-L1 based on the HTRF methodology: 5 nM hPD-L1, 50 nM hPD-1, 10f, 10l, 10p IC50 measured with 6 concentrations, remaining compounds estimated from scouting mode (50 and 5 nM) by translation of average Hill's fits; for activity towards dissociating the PD-1/PD-L1 complex: one-point experiment at 50 and 5 nM concentrations of each inhibitor
Experimental: Homogenous Time Resolved Fluorescence
HTRF was performer using the certified Cis-Bio assay according to the manufacturer’s guidelines.
experiments were performed at 5 nM of hPD-L1 and 50 nM of hPD-1 in the final formulation at 20 µL final
After mixing all components according to Cis-Bio protocol, the plate was left for 1h incubation
at room temperature followed by TR-FRET measurement on Tecan Spark 20M. To determine the activity of tested
compounds data was collected for 2 different concentrations of the ligand: 50 nM and 5 nM in the final volume.
All measurements were performed on two individual
dilution series, unless states otherwise. Collected data was background subtracted on the negative control,
normalized on the positive control, averaged and for IC50 determination fitted with normalized Hill’s equation to
determine the IC50 value using Mathematica 12. For remaining compounds, which were measured in scouting
mode, the inhibitory constants were approximated by translation of the average Hill’s fits of fully described
compounds to match the experimental datapoints. Since all compounds reported here are closely related, the slope
of Hill’s fit that determines the shape of the curve is therefore similar across them.

PD-L1 = system: PD-L1; set-up: method as in PMID 35585982; details: printed in Fig. 1B, patented PD-L1 dimerizers by Maxinovel Pharma; cited from earlier work
human PD-L1 (hPD-L1) = target: T1, human PD-L1 (hPD-L1) (Homo sapiens, UniProt Q9NZQ7); assay: 1H NMR titration experiment with hPD-L1; assay type: binding; details: molar ratio of protein to inhibitor 1 : 1; PBS pH 7.4, 0.2 mM PD-L1
T1 construct: PD-L1 gene (amino acids 18-134); made in house
Experimental: The corresponding behaviour is characteristic of hPD-L1 oligomerization, previously observed by our group with BMS reference compounds.[20]
Fig. 2 Aliphatic part of the ^1H NMR spectra of PD-L1 with tetrazole-based inhibitors. ^1H NMR spectra of hPD-L1 protein (blue), PD-L1 and compounds: (A) 10f, (B) 10p, and (C) 10l in protein to inhibitor molar ratios of 1 : 1 (red) and 1 : 10 (green), respectively.
NMR spectra were recorded in PBS pH 7.4 containing 10% (v/v) of D2O added to the samples to provide the lock signal. Water suppression was carried out using the WATERGATE pulse sequence. All the spectra were recorded at 300 K using a Bruker Avance III 600 MHz spectrometer. The spectra were recorded at the protein/ligand at the molar ratio 1:1 and 1:10. The sample were prepared by adding the appropriate amounts of inhibitor, from 50 mM ligand stock solution in DMSO-d6, to the protein solution of PD-L1 at a concentration of 0.2 mM. Spectra were visualized using TopSpin 3.2
Protein expression and purification
E. coli strain BL21 was transformed with pET-21b plasmid carrying PD-L1 gene (amino acids 18-134). The bacteria were cultured in LB at 37°C until OD600nm of 0.6 when the recombinant protein production was induced with 1 mM IPTG. The protein production was continued overnight. Inclusion bodies were collected by centrifugation, washed twice with 50 mM Tris-HCl pH 8.0 containing 200 mM NaCl, 10 mM EDTA, 10 mM 2-mercaptoethanol and 0.5% Triton X-100, followed by a single wash with the same buffer but with no Triton X-100. The washed inclusion bodies were resuspended overnight in 50 mM Tris-HCl pH 8.0, 6 M GuHCl, 200 mM NaCl and 10 mM 2-mercaptoethanol and clarified with centrifugation. Refolding of PD-L1 was performed by drop-wise dilution into 0.1 M Tris-HCl pH 8.0 containing 1 M L-arginine hydrochloride, 0.25 mM oxidized glutathione and 0.25 mM reduced glutathione. […]
7.4. The quality of the refolded protein was evaluated by SDS-PAGE and NMR. […]

PD-1/PD-L1 complex, sequence (Q9NZQ7 19-238 limits assumed, one chain of several): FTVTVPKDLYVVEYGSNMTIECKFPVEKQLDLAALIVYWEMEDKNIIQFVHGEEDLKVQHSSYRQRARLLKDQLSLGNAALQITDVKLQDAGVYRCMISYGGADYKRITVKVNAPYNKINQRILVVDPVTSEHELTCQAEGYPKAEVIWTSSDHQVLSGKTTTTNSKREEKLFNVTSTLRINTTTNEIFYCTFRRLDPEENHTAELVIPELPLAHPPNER
T1 sequence (Q9NZQ7 18-134): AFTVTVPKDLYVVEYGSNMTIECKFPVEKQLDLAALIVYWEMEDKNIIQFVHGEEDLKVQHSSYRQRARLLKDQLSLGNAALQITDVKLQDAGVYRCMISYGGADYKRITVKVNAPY

## Cc1c(/C=C/n2nnnc2C(NCc2ccncc2)C2CC2)cccc1-c1ccccc1 (centres unmarked) [10d]
PD-1/PD-L1 complex
  IC50: 1770 nM

## Cc1c(/C=C/n2nnnc2CN[C@]23CC4CC(C[C@@](O)(C4)C2)C3)cccc1-c1ccccc1 [10h]
PD-1/PD-L1 complex
  IC50 (nM), SAR toward PD-L1 based on the HTRF methodology: Inactive

## COc1cccc(CNC(c2nnnn2/C=C/c2cccc(-c3ccccc3)c2C)C(C)C)c1OC (centres unmarked) [10b]
PD-1/PD-L1 complex
  IC50 (nM), SAR toward PD-L1 based on the HTRF methodology: Inactive

## Cc1c(/C=C/n2nnnc2CNCCO)cccc1-c1ccc2c(c1)OCCO2 [10q]
PD-1/PD-L1 complex
  IC50 (nM), SAR toward PD-L1 based on the HTRF methodology: Inactive

## Cc1c(/C=C/n2nnnc2CNCCCCCO)cccc1-c1ccc2c(c1)OCCO2 [10n]
PD-1/PD-L1 complex
  IC50: 2850 nM

## Cc1c(/C=C/c2cc(CNC(C)(CO)C(=O)O)ccc2C(F)(F)F)cccc1-c1ccc2c(c1)OCCO2 (centres unmarked) [MAX-10181]
PD-L1
  pIC50: 7.74

## Cc1c(/C=C/n2nnnc2C(CC(C)C)NCCN2CCOCC2)cccc1-c1ccccc1 (centres unmarked) [10a]
PD-1/PD-L1 complex
  IC50 (nM), SAR toward PD-L1 based on the HTRF methodology: Inactive

## Cc1c(/C=C/n2nnnc2CNCC(C)(C)C)cccc1-c1ccccc1 [10e]
PD-1/PD-L1 complex
  IC50 (nM), SAR toward PD-L1 based on the HTRF methodology: Inactive

## CCNCc1nnnn1/C=C/c1cccc(-c2ccccc2)c1C [10f]
Human PD-L1 (hPD-L1)
  hPD-L1 oligomerization upon addition of the ligand (broadening of hPD-L1 proton signals): protein oligomerization
PD-1/PD-L1 complex
  activity towards dissociating the PD-1/PD-L1 complex: better activity
  IC50: 408 nM

## Cc1c(/C=C/n2nnnc2C(CCl)NCc2ccco2)cccc1-c1ccccc1 (centres unmarked) [10c]
PD-1/PD-L1 complex
  IC50 (nM), SAR toward PD-L1 based on the HTRF methodology: Inactive

## Cc1c(/C=C/n2nnnc2CNCCCCO)cccc1-c1ccc2c(c1)OCCO2 [10o]
PD-1/PD-L1 complex
  IC50: 1130 nM

## Cc1c(/C=C/n2nnnc2CN2CCCCOC2)cccc1-c1ccccc1 [10i]
PD-1/PD-L1 complex
  IC50: 460 nM

## Cc1c(/C=C/n2nnnc2C(C)NCCCO)cccc1-c1ccc2c(c1)OCCO2 (centres unmarked) [10p]
Human PD-L1 (hPD-L1)
  hPD-L1 oligomerization upon addition of the ligand (broadening of hPD-L1 proton signals): protein oligomerization
PD-1/PD-L1 complex
  activity towards dissociating the PD-1/PD-L1 complex: better activity
  IC50: 254 nM

## Cc1c(COc2cc(OCc3cccc(C#N)c3)c(CN3C[C@H](O)C[C@@H]3C(=O)O)cc2Cl)cccc1-c1ccc2c(c1)OCCO2 [BMS-1166, reference compound]
PD-1/PD-L1 complex; one-point experiment, 50 and 5 nM concentrations of inhibitor
  undissociated PD-1/PD-L1 complex: 42.1 ± 6.4%

## Cc1c(/C=C/n2nnnc2CNCCCCCO)cccc1-c1ccccc1 [10j]
PD-1/PD-L1 complex
  IC50: 1840 nM

## Cc1c(/C=C/n2nnnc2CN2CCCOC2)cccc1-c1ccccc1 [10l]
Human PD-L1 (hPD-L1)
  hPD-L1 oligomerization upon addition of the ligand (broadening of hPD-L1 proton signals): protein oligomerization
PD-1/PD-L1 complex
  activity towards dissociating the PD-1/PD-L1 complex: better activity
  IC50: 944 nM

## Cc1c(/C=C/n2nnnc2CN[C@]23CC4CC(C[C@@](O)(C4)C2)C3)cccc1-c1ccc2c(c1)OCCO2 [10m]
PD-1/PD-L1 complex
  IC50 (nM), SAR toward PD-L1 based on the HTRF methodology: Inactive

## Cc1c(/C=C/n2nnnc2CN2CCOC2)cccc1-c1ccccc1 [10k]
PD-1/PD-L1 complex
  IC50: 1000 nM

## Cc1c(/C=C/n2nnnc2C(C)NCCCO)cccc1-c1ccccc1 (centres unmarked) [10g]
PD-1/PD-L1 complex
  IC50: 1800 nM

## Cc1c(/C=C/n2nnnc2CN2CCCOC2)cccc1-c1ccc2c(c1)OCCO2 [10r]
PD-1/PD-L1 complex
  IC50: 1130 nM
